We go through three compounds from ChEMBL document CHEMBL1201862, “PubChem BioAssay data set” (2004).

Calls of active or inactive are those of the source. No rule for the calls is given here.

Common to all, as to type: functional
The target of assay [1] is BDNF/NT-3 growth factors receptor (Homo sapiens, UniProt Q16620).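 Also: NTRK2 measured as one member of a broad kinome-wide kinase profiling panel.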
Assay [2] concerns the target Ribosomal protein S6 kinase alpha-3 (Homo sapiens, UniProt P51812).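 Also: measured within a kinome-wide profiling panel.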
Assay [3] concerns the target Activated CDC42 kinase 1 (Homo sapiens, UniProt Q07912). Kind of assay: Navigating the Kinome. Panel member name: ACK1.
For assay [4], the target named is Cyclin-dependent kinase 5 (Homo sapiens, UniProt Q00535).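 Also: CDK5 measured as one member of a kinase profiling panel.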
Cyclin-dependent kinase 5, sequence (Q00535 whole entry): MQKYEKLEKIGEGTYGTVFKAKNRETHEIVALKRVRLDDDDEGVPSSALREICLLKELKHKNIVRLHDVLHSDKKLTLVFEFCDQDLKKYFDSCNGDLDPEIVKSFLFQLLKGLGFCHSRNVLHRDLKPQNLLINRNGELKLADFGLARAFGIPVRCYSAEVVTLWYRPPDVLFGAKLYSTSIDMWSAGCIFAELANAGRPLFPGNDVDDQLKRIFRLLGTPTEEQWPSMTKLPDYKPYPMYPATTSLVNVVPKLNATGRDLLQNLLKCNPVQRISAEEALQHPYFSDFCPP
For assay [5], the target named is T1, Tyrosine-protein kinase JAK3 (Homo sapiens, UniProt P52333).
T1 sequence (P52333 whole entry): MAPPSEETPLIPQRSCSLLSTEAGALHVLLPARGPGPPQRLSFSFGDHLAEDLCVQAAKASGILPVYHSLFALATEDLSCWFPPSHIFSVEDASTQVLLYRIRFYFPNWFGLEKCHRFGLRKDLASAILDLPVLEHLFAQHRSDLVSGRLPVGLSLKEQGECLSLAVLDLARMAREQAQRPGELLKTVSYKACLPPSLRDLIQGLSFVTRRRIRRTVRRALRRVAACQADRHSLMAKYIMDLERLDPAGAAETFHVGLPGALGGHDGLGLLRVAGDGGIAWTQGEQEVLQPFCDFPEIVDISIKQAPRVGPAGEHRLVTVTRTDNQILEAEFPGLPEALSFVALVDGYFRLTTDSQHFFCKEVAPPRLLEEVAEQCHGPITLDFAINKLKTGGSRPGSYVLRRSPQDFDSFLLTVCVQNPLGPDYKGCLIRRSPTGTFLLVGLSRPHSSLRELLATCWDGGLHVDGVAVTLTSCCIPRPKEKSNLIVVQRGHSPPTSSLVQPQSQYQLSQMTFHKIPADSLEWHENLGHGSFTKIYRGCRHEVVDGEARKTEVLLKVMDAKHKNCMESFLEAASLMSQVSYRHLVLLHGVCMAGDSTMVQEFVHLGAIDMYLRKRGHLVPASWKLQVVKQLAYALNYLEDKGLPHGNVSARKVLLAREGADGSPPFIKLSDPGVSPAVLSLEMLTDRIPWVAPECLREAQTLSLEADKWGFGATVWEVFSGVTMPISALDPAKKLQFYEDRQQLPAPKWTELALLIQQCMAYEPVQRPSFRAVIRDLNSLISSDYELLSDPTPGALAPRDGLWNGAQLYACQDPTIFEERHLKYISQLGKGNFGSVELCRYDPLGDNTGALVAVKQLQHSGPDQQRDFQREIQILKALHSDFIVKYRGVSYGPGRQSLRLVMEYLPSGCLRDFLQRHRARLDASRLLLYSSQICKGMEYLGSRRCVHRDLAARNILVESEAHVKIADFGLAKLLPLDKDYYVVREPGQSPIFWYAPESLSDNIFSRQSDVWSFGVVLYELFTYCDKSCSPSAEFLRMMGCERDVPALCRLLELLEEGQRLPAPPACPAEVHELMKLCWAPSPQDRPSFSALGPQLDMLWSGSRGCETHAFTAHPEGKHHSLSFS

For assay [6], the target named is Macrophage colony-stimulating factor 1 receptor (Homo sapiens, UniProt P07333).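 Also: value comes from the Navigating the Kinome screening panel, CSF1R member.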
Macrophage colony-stimulating factor 1 receptor, sequence (P07333 whole entry): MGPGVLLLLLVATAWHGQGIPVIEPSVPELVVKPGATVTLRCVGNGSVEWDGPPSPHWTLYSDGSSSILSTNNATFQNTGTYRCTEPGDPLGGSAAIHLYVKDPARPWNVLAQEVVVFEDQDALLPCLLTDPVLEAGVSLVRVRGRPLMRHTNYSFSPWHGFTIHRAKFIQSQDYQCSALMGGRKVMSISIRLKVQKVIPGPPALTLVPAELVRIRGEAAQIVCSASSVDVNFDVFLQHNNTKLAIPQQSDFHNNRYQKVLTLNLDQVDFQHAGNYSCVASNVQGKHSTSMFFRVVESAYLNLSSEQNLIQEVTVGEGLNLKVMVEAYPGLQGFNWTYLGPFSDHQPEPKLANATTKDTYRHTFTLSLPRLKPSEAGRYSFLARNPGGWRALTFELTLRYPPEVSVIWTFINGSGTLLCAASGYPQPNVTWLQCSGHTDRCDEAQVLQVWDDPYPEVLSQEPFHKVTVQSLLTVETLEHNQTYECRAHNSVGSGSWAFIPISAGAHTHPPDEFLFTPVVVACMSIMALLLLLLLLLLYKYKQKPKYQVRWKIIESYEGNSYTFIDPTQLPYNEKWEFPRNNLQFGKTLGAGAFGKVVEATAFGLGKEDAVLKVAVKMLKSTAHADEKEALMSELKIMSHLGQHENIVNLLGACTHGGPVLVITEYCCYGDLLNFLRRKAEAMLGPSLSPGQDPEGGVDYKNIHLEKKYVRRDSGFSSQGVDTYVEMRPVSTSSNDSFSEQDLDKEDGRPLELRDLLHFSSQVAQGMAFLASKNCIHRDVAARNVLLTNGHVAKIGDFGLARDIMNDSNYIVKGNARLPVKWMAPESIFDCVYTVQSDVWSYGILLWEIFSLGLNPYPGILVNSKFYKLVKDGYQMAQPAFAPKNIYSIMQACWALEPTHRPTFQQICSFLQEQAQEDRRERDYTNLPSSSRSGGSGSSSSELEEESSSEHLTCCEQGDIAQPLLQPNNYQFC
Assay [7] concerns the target 5'-AMP-activated protein kinase catalytic subunit alpha-1 (Homo sapiens, UniProt Q13131).
Assay [8] concerns the target T2, Serine/threonine-protein kinase D3 (Homo sapiens, UniProt O94806).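 Also: determined within a kinase panel screen, with PRKCN as the panel member.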
T2 sequence (O94806 whole entry): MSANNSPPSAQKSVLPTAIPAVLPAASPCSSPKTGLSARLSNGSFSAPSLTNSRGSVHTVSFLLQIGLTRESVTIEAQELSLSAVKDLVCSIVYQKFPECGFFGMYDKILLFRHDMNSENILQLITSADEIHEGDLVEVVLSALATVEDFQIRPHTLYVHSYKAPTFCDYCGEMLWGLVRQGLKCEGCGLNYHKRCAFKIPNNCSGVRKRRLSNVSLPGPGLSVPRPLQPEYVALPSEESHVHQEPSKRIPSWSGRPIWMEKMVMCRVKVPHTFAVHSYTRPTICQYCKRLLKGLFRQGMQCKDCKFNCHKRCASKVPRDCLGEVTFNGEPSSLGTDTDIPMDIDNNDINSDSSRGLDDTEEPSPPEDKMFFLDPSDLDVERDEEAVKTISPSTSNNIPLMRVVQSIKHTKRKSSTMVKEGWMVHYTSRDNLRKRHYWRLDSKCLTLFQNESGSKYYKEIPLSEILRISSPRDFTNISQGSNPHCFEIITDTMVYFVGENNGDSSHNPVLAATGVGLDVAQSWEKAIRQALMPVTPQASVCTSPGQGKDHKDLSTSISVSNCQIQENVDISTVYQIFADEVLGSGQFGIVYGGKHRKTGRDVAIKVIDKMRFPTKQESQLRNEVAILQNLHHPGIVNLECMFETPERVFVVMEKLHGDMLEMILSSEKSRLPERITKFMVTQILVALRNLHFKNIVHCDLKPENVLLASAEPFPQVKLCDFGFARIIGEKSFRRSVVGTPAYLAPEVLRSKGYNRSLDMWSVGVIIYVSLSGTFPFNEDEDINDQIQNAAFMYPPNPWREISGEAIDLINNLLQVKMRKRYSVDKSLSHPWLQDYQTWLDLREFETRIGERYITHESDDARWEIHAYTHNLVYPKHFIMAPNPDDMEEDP

Activated CDC42 kinase 1, sequence (Q07912 whole entry): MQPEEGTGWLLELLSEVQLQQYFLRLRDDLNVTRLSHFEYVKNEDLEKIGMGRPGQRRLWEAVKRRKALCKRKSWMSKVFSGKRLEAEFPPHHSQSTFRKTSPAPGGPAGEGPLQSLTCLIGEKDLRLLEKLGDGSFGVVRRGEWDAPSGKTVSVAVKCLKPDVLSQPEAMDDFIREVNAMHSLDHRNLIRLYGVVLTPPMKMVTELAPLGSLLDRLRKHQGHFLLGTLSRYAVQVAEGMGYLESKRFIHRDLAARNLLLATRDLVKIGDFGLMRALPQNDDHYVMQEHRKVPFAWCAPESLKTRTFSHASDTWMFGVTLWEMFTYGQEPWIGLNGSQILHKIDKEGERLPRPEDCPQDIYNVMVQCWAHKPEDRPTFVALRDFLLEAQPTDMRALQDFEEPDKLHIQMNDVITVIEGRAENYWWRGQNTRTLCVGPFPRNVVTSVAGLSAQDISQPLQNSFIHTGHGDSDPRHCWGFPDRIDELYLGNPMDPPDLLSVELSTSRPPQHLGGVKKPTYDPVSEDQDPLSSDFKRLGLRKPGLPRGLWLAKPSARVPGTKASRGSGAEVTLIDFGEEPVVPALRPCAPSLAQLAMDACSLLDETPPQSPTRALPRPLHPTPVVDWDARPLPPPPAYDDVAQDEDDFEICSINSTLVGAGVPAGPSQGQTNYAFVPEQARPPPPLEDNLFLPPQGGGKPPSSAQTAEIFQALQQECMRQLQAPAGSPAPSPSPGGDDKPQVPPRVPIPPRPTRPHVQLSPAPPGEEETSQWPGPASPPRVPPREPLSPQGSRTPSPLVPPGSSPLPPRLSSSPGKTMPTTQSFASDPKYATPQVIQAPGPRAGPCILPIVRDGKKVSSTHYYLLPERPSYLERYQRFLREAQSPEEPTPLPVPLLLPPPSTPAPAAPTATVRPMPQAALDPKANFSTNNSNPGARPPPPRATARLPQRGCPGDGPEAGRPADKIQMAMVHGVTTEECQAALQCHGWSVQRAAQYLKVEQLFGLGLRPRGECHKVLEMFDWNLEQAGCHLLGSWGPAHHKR
BDNF/NT-3 growth factors receptor, sequence (Q16620 whole entry): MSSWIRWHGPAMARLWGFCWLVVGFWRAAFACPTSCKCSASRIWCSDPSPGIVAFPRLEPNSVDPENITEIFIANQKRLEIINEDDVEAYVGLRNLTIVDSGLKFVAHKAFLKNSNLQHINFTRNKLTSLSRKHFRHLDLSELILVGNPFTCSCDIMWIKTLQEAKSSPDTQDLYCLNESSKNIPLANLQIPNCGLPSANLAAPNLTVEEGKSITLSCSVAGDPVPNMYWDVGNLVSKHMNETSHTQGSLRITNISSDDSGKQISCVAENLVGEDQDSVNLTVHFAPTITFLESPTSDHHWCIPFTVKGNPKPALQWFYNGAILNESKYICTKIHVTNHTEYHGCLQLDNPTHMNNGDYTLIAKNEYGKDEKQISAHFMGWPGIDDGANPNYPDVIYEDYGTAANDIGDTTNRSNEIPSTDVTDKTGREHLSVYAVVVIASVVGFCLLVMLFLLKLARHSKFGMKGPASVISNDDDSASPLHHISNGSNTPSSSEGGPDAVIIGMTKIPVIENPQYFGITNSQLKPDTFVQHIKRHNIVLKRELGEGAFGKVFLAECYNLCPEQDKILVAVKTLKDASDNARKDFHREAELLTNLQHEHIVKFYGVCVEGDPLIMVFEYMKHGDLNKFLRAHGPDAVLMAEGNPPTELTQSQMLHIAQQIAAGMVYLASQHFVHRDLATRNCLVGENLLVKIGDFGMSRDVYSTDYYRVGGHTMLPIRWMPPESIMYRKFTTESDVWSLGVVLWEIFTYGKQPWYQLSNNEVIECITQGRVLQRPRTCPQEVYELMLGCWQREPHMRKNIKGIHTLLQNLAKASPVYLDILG
Ribosomal protein S6 kinase alpha-3, sequence (P51812 whole entry): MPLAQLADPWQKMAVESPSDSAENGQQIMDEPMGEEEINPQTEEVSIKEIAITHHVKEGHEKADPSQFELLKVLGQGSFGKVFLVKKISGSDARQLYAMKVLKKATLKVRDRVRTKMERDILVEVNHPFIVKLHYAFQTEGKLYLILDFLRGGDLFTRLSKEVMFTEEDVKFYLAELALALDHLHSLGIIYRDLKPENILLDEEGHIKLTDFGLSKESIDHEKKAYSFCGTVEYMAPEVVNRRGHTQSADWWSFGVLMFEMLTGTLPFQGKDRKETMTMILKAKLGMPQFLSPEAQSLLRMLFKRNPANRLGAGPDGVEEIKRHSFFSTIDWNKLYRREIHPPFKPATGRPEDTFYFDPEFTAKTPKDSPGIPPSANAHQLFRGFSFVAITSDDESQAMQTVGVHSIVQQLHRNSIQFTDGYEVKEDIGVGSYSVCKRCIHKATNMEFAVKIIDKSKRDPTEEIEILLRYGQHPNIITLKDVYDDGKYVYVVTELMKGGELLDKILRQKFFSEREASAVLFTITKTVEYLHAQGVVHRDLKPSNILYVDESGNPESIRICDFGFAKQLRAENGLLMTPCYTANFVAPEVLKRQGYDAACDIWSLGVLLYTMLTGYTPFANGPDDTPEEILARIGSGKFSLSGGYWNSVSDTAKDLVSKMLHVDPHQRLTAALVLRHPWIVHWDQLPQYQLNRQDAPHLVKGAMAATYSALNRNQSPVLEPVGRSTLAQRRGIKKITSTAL
5'-AMP-activated protein kinase catalytic subunit alpha-1, sequence (Q13131 whole entry): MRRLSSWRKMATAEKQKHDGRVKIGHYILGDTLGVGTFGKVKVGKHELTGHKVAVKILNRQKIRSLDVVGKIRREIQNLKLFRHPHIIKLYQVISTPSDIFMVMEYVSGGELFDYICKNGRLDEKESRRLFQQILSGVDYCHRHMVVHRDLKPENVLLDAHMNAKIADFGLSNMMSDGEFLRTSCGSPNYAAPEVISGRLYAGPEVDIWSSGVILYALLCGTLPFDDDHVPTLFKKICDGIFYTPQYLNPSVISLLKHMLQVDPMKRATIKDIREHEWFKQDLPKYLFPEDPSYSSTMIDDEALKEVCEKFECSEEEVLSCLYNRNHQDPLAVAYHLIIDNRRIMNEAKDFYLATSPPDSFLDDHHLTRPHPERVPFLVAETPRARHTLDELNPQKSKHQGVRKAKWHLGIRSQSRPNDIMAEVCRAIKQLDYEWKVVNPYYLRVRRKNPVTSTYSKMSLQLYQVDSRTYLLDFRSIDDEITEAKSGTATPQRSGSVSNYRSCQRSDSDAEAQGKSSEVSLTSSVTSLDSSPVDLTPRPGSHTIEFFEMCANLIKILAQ

As for `COc1cccc(C(C)NC(=O)c2sc(-c3ccncc3)nc2C)c1` (centres undefined), the Ki in assay [1] was > 3.98 µM (inactive); in assay [2] it was > 3.98 µM (inactive); in assay [3] it was > 3.98 µM (inactive); in assay [4] it was > 3.16 µM (inactive); in assay [5], > 5.01 µM (inactive); in assay [6] it was > 2.51 µM (inactive). The Ki in assay [7] is > 3.16 µM (inactive); in assay [8], > 3.98 µM (inactive).
In the case of `CCCCC(=O)Nc1cc(-c2c[nH]c3ncccc23)cc(Cl)n1`, the Ki in assay [1] was > 3.98 µM (inactive); in assay [2] it was > 3.98 µM (inactive); in assay [3] it was > 3.98 µM (inactive); in assay [4], 1 µM (active); in assay [5], > 5.01 µM (inactive); in assay [6], > 2.51 µM (inactive). Moreover, the Ki in assay [7] is > 3.16 µM (inactive); in assay [8] it was > 3.98 µM (inactive).
On to `Oc1ccc(-c2nc(-c3ccncc3)c(-c3ccc(F)cc3)[nH]2)cc1` [SB-202190], for which the inhibition constant (Ki) in assay [1] was 0.794 µM (active); in assay [2], > 3.98 µM (inactive); in assay [3] it was > 3.98 µM (inactive); in assay [4] it was > 3.16 µM (inactive); in assay [5], > 5.01 µM (inactive); in assay [6] it was > 2 µM (inactive). Further, the figures for the Ki in assay [7] and in assay [8] were > 3.16 µM (inactive) and 2.51 µM (active), respectively.

One may read the Ki as a dissociation constant, usually derived from enzyme kinetics or from competition with a known ligand.
